Results on eight compounds are retold here after ChEMBL document CHEMBL4610101, “Antimalarial Eudesmane Sesquiterpenoids from Dobinea delavayi” (2020).

Active and inactive are the calls of the source. The calls are words filed in the database; no cut-off is given here.

Test [1] concerns Plasmodium yoelii. Nature of the test: Antimalarial activity against Plasmodium yoelii BY265RFP infected in Kunming mouse assessed as inhibition of parasitemia at 30 mg/kg/day, ig administered for 4 days starting from 3 hrs post infection and measured at 4 days post infection by Wright-Giemsa staining based microscopic assay relative to control. The test is classed as functional. As to conditions: po.

The test system of test [2] is Plasmodium yoelii. As to the kind of experiment: Disruption of mitochondrial membrane potential in Plasmodium yoelii BY265RFP infected in mouse erythrocytes assessed as red/green fluorescence ratio at 0.03 uM incubated for 12 hrs by JC1 staining based laser-scanning confocal microscopic analysis (reference value: 1.55 +/- 0.08). The test is classed as functional.
Test [3] deals with Plasmodium yoelii. As to the kind of experiment: Disruption of mitochondrial membrane potential in Plasmodium yoelii BY265RFP infected in mouse erythrocytes assessed as red/green fluorescence ratio at 0.3 uM incubated for 12 hrs by JC1 staining based laser-scanning confocal microscopic analysis (reference value: 1.55 +/- 0.08). The test is classed as functional.
The test system of test [4] is Plasmodium yoelii. Nature of the test: Antimalarial activity against Plasmodium yoelii BY265RFP infected in Kunming mouse assessed as inhibition of parasitemia at 50 mg/kg/day, ig administered for 4 days starting from 3 hrs post infection and measured at 4 days post infection by Wright-Giemsa staining based microscopic assay relative to control. The test is classed as functional. As to conditions: po.

Test [5] relates to Plasmodium yoelii. Nature of the test: Disruption of mitochondrial membrane potential in Plasmodium yoelii BY265RFP infected in mouse erythrocytes assessed as red/green fluorescence ratio at 3 uM incubated for 12 hrs by JC1 staining based laser-scanning confocal microscopic analysis (reference value: 1.55 +/- 0.08). Format: functional.
The subject of test [6] is Plasmodium yoelii. As to the kind of experiment: Antimalarial activity against Plasmodium yoelii BY265RFP infected in Kunming mouse assessed as inhibition of parasitemia at 10 mg/kg/day, ig administered for 4 days starting from 3 hrs post infection and measured at 4 days post infection by Wright-Giemsa staining based microscopic assay relative to control. The test is classed as functional. To be noted: po.

In test [7] the test system is Mus musculus. Nature of the test: Immunomodulatory activity in Kunming mouse infected with Plasmodium yoelii BY265RFP assessed as proportion of splenic CD4+CD25+ Tregs within CD4+ cells at 10 mg/kg/day, ig administered for 4 days starting from 3 hrs post infection and measured at 4 days post infection by FACSCalibur flow cytometry (reference value: 11.2 +/- 0.5%). Format: functional. On the technique in general: In flow cytometry, cells or beads pass a laser one at a time.

In the next test the test system is Hemozoin. Nature of the test: Inhibition of beta-hematin formation incubated for 5 hrs.
The subject of test [8] is Plasmodium yoelii. As to the kind of experiment: Antimicrobial activity against Plasmodium yoelii BY265RFP infected in Kunming mouse assessed as relief from hepatomegaly at 15 to 30 mg/kg/day, ig administered for 4 days starting from 3 hrs post infection and measured at 4 days post infection. Format: functional, organism-based.
For test [9], the system named is Plasmodium yoelii. Nature of the test: Antimicrobial activity against Plasmodium yoelii BY265RFP infected in Kunming mouse assessed as recovery of erythrocyte at 15 to 30 mg/kg/day, ig administered for 4 days starting from 3 hrs post infection and measured at 4 days post infection. The test is classed as functional, organism-based.
In test [10] the test system is Mus musculus. Nature of the test: Immunomodulatory activity in Kunming mouse infected with Plasmodium yoelii BY265RFP assessed as decrease in IgG at 30 mg/kg/day, ig administered for 4 days starting from 3 hrs post infection and measured at 4 days post infection by FACSCalibur flow cytometry. Format: functional, organism-based.
Test [11] has as its system Mus musculus. As to the kind of experiment: Immunomodulatory activity in Kunming mouse infected with Plasmodium yoelii BY265RFP assessed as proportion of splenic CD4+CD25+ Tregs within CD4+ cells at 30 mg/kg/day, ig administered for 4 days starting from 3 hrs post infection and measured at 4 days post infection by FACSCalibur flow cytometry (reference value: 11.2 +/- 0.5%). The test is classed as functional.

Test [12] has as its system Mus musculus. Nature of the test: Immunomodulatory activity in Kunming mouse infected with Plasmodium yoelii BY265RFP assessed as increase in IFN-gamma at 30 mg/kg/day, ig administered for 4 days starting from 3 hrs post infection and measured at 4 days post infection by FACSCalibur flow cytometry. The test is classed as functional, organism-based.
Test [13] concerns Plasmodium yoelii. As to the kind of experiment: Antimalarial activity against Plasmodium yoelii BY265RFP infected in Kunming mouse assessed as inhibition of parasitemia at 15 mg/kg/day, ig administered for 4 days starting from 3 hrs post infection and measured at 4 days post infection by Wright-Giemsa staining based microscopic assay relative to control. Format: functional. As to conditions: po.

In test [14] the test system is Plasmodium yoelii. Nature of the test: Induction of intracellular ROS production in Plasmodium yoelii BY265RFP infected in mouse erythrocytes at 0.03 to 3 uM after 12 hrs by DCFH-DA staining based laser-scanning confocal microscopic analysis. The test is classed as functional, organism-based.
For test [15], the system named is Plasmodium yoelii. Nature of the test: Antimicrobial activity against Plasmodium yoelii BY265RFP infected in Kunming mouse assessed as recovery of abdominal temperature at 15 to 30 mg/kg/day, ig administered for 4 days starting from 3 hrs post infection and measured at 5 days post infection. The test is classed as functional, organism-based.
The test system of test [16] is Mus musculus. As to the kind of experiment: Immunomodulatory activity in Kunming mouse infected with Plasmodium yoelii BY265RFP assessed as increase in IL-12 at 30 mg/kg/day, ig administered for 4 days starting from 3 hrs post infection and measured at 4 days post infection by FACSCalibur flow cytometry. The test is classed as functional, organism-based.
Test [17] relates to Plasmodium yoelii. Nature of the test: Antimicrobial activity against Plasmodium yoelii BY265RFP infected in Kunming mouse assessed as increase in hemoglobin level at 15 to 30 mg/kg/day, ig administered for 4 days starting from 3 hrs post infection and measured at 5 days post infection. Format: functional, organism-based.
The subject of test [18] is Mus musculus. Nature of the test: Immunomodulatory activity in Kunming mouse infected with Plasmodium yoelii BY265RFP assessed as proportion of splenic CD4+CD25+ Tregs within CD4+ cells at 15 mg/kg/day, ig administered for 4 days starting from 3 hrs post infection and measured at 4 days post infection by FACSCalibur flow cytometry (reference value: 11.2 +/- 0.5%). The test is classed as functional.

The test system of test [19] is Mus musculus. Nature of the test: Immunomodulatory activity in Kunming mouse infected with Plasmodium yoelii BY265RFP assessed as decrease in IL-10 at 30 mg/kg/day, ig administered for 4 days starting from 3 hrs post infection and measured at 4 days post infection by FACSCalibur flow cytometry. The test is classed as functional, organism-based.

Usually inhibition in vivo stands for the drop in the measured response relative to a control, in per cent. Turning to `C/C=C(/C)C(=O)O[C@H]1CC[C@]2(C)C[C@@H]3OC(=O)C(C)=C3C[C@H]2[C@]1(C)OC(C)=O`, in the test on Plasmodium yoelii [1], the inhibition in vivo at 30 mg/kg/day was 15%.

For `C/C=C(/C)C(=O)O[C@H]1CC[C@]2(C)CC(=O)[C@@H](C(C)C(=O)O)C[C@H]2[C@]1(C)O` (stereo partly drawn), the inhibition in vivo at 30 mg/kg/day in the test on Plasmodium yoelii [1] came out at 3.9%.

Consider `C[C@@H]1CC[C@H]2[C@@H](C)C(=O)O[C@@H]3O[C@@]4(C)CC[C@@H]1[C@]32OO4` [ARTEMISININ], for which the Ratio with Plasmodium yoelii [2] is on record as 1.43; in the test with Plasmodium yoelii [3] it was 1.33; with Plasmodium yoelii [5], 1.18. In the test with Plasmodium yoelii [4], the inhibition in vivo at 50 mg/kg/day is 54.4%.

For the compound `C/C=C(/C)C(=O)O[C@H]1CC[C@]2(C)C[C@]3(O)OC(=O)C(C)=C3C[C@H]2[C@]1(C)O`, the inhibition in vivo at 30 mg/kg/day in the test with Plasmodium yoelii [1] is -1.9%.

In the case of `CCN(CC)CCCC(C)Nc1ccnc2cc(Cl)ccc12` (stereo not drawn) [CHLOROQUINE PHOSPHATE], in the test with Plasmodium yoelii [6], the inhibition in vivo at 10 mg/kg/day stood at 97.9%.

Turning to `C/C=C(/C)C(=O)O[C@H]1CC[C@]2(C)C[C@]3(O)OC(=O)C(C)=C3C[C@H]2[C@]1(C)OC(C)=O`, the inhibition in vivo at 30 mg/kg/day with Plasmodium yoelii [1] was 14.5%.

Regarding `C/C=C(/C)C(=O)O[C@H]1CC[C@]2(C)C[C@@H](C(C)=O)C[C@H]2[C@]1(C)OC(C)=O`, the Activity in the test with Mus musculus [7] worked out at 6.7%; with Mus musculus [11] it was 7.6%; in the test on Mus musculus [18], 8.6%. The inhibition result in the test with Hemozoin was “inactive”. Also, the result in the test on Plasmodium yoelii [8], in the test with Plasmodium yoelii [9], in the test with Mus musculus [10], in the test on Mus musculus [12], with Plasmodium yoelii [14] and with Plasmodium yoelii [15] was Active. For the same compound, the outcome in the test with Mus musculus [16], in the test with Plasmodium yoelii [17] and in the test with Mus musculus [19] was Active. Further, the inhibition in vivo at 30 mg/kg/day in the test on Plasmodium yoelii [1] turned out to be 59.1%. For the same compound, the Ratio is reported as 1.51 in the test with Plasmodium yoelii [2], 1.35 in the test on Plasmodium yoelii [3] and 1.22 in the test with Plasmodium yoelii [5]. Further, in the test on Plasmodium yoelii [13], the inhibition in vivo at 15 mg/kg/day was determined as 33.8%.

As to `C/C=C(/C)C(=O)O[C@H]1CC[C@]2(C)CC(=O)C[C@H]2[C@]1(C)OC(C)=O`, the inhibition in vivo at 30 mg/kg/day in the test on Plasmodium yoelii [1] was found to be 18.5%.
